From ChEMBL document CHEMBL4808221, “Design and Synthesis of Novel c-di-GMP G-Quadruplex Inducers as Bacterial Biofilm Inhibitors” (J Med Chem, 2021)
pIC50: −log10 of the molar value. The source made the active and inactive calls. The rule behind the calls is not given here.

Columns and labels:
[1] = tested on: c-di-GMP G-quadruplex; test: Induction of c-di-GMP G-quadruplex formation in Pseudomonas aeruginosa PAO1 harboring wspF gene mutation assessed as inhibition of biofilm formation at 1.25 uM incubated for 20 hrs by crystal violet staining assay relative to control; assay type: nucleic-acid assay
[2] = tested on: Pseudomonas aeruginosa; test: Antibacterial activity against Pseudomonas aeruginosa PAO1 harboring wspF gene mutation assessed as reduction in bacterial growth at 512 uM by crystal violet staining assay relative to control; assay type: functional, organism-based
[3] = tested on: Quadruplex DNA; test: Induction of c-di-GMP G-quadruplex formation (unknown origin) measured at 300 nanometer by CD spectroscopy; assay type: nucleic-acid assay
[4] = tested on: c-di-GMP G-quadruplex; test: Induction of c-di-GMP G-quadruplex formation in Pseudomonas aeruginosa […] assessed as inhibition of biofilm formation at 0.15625 to 1.25 uM by confocal microscopic method; assay type: nucleic-acid assay; details: PAO1, dose 0.15625-1.25 µM
[5] = tested on: Pseudomonas aeruginosa; test: Antibacterial activity against Pseudomonas aeruginosa PAO1 assessed as reduction in biofilm formation at 0.15625 to 1.25 uM by crystal violet staining method; assay type: functional, organism-based; details: dose 0.15625-1.25 µM
[6] = tested on: Pseudomonas aeruginosa; test: Antibacterial activity against Pseudomonas aeruginosa PAO1 harboring wspF gene mutation assessed as reduction in bacterial growth at 0.15625 to 2.5 uM by confocal microscopic method; assay type: functional, organism-based; details: dose 0.15625-2.5 µM
[7] = tested on: c-di-GMP G-quadruplex; test: Induction of c-di-GMP G-quadruplex formation in Pseudomonas aeruginosa PAO1 harboring wspF gene mutation assessed as inhibition of biofilm formation incubated for 24 hrs by confocal microscopic method; assay type: nucleic-acid assay
[8] = tested on: c-di-GMP G-quadruplex; test: Induction of c-di-GMP G-quadruplex formation in Pseudomonas aeruginosa PAO1 harboring wspF gene mutation assessed as inhibition of biofilm formation incubated for 20 hrs by crystal violet staining assay relative to control; assay type: nucleic-acid assay
[9] = Binding affinity to c-di-GMP (unknown origin) at 5 uM using varying level of c-di-GMP by fluorescence method
[10] = Binding affinity to guanosine monophosphate (unknown origin) at 5 uM by fluorescence method
[11] = Binding affinity to r-NTP (unknown origin) at 5 uM by fluorescence method
[12] = Binding affinity to d-NTP (unknown origin) at 5 uM by fluorescence method
[13] = tested on: Pseudomonas aeruginosa; test: Effect on swarming capacity of Pseudomonas aeruginosa PAO1 harboring wspF gene mutation assessed as increase in motility at 5 uM incubated for 14 hrs relative to control; assay type: functional
[14] = tested on: Pseudomonas aeruginosa; test: Effect on swarming capacity of Pseudomonas aeruginosa PAO1 harboring wspF gene mutation assessed as increase in motility at 3.75 uM incubated for 14 hrs relative to control; assay type: functional
[15] = tested on: Pseudomonas aeruginosa; test: Effect on swarming capacity of Pseudomonas aeruginosa PAO1 harboring wspF gene mutation assessed as increase in motility at 2.5 uM incubated for 14 hrs relative to control; assay type: functional
[16] = tested on: Pseudomonas aeruginosa; test: Effect on extracellular polysaccharide in Pseudomonas aeruginosa PAO1 harboring wspF gene mutation assessed as reduction in EPS production at 0.15625 to 0.625 uM by congo red binding assay; assay type: functional, organism-based; details: dose 0.15625-0.625 µM
[17] = tested on: Pseudomonas aeruginosa; test: Effect on extracellular polysaccharide in Pseudomonas aeruginosa PAO1 harboring wspF gene mutation assessed as reduction in EPS production at 1.25 uM by congo red binding assay relative to control; assay type: functional; design: scale not given: the % may be the effect or the level left
[18] = tested on: c-di-GMP G-quadruplex; test: Induction of c-di-GMP G-quadruplex formation in Pseudomonas aeruginosa PAO1 harboring wspF gene mutation and LacZ reporter gene assessed as reduction in PelA expression by measuring decrease in lacZ activity at 0.3125 to 1.25 uM incubated for 4 hrs by absorbance method; details: dose 0.3125-1.25 µM
[19] = tested on: Bacteria; test: Effect on WspR (unknown origin) assessed as reduction in c-di-GMP level at 1.25 to 5 uM measured by HPLC method; details: dose 1.25-5 µM
[20] = tested on: Bacteria; test: Effect on RocR (unknown origin) assessed as induction of c-di-GMP degradation at 1.25 to 5 uM measured by HPLC method; details: dose 1.25-5 µM
[21] = tested on: c-di-GMP G-quadruplex; test: Induction of c-di-GMP G-quadruplex formation in Pseudomonas aeruginosa PAO1 harboring wspF gene mutation assessed as suppression of cdrA expression at 1.25 uM incubated for 15 hrs by transcriptome analysis
[22] = tested on: c-di-GMP G-quadruplex; test: Downregulation of c-di-GMP level in Pseudomonas aeruginosa PAO1 harboring wspF gene mutation assessed as reduction in Alg44 expression at 1.25 uM incubated for 15 hrs by transcriptome analysis
[23] = tested on: c-di-GMP G-quadruplex; test: Downregulation of c-di-GMP level in Pseudomonas aeruginosa PAO1 harboring wspF gene mutation assessed as induction of tpbA expression at 1.25 uM incubated for 15 hrs by transcriptome analysis
[24] = tested on: c-di-GMP G-quadruplex; test: Induction of c-di-GMP G-quadruplex formation in Pseudomonas aeruginosa PAO1 harboring wspF gene mutation assessed as induction of flhA expression at 1.25 uM incubated for 15 hrs by transcriptome analysis
[25] = tested on: c-di-GMP G-quadruplex; test: Induction of c-di-GMP G-quadruplex formation in Pseudomonas aeruginosa PAO1 harboring wspF gene mutation assessed as induction of flhF expression at 1.25 uM incubated for 15 hrs by transcriptome analysis
[26] = tested on: c-di-GMP G-quadruplex; test: Induction of c-di-GMP G-quadruplex formation in Pseudomonas aeruginosa PAO1 harboring wspF gene mutation assessed as induction of fliD expression at 1.25 uM incubated for 15 hrs by transcriptome analysis
[27] = tested on: c-di-GMP G-quadruplex; test: Induction of c-di-GMP G-quadruplex formation in Pseudomonas aeruginosa PAO1 harboring wspF gene mutation assessed as induction of flgA expression at 1.25 uM incubated for 15 hrs by transcriptome analysis
[28] = tested on: c-di-GMP G-quadruplex; test: Induction of c-di-GMP G-quadruplex formation in Pseudomonas aeruginosa PAO1 harboring wspF gene mutation assessed as induction of fleN expression at 1.25 uM incubated for 15 hrs by transcriptome analysis
[29] = tested on: c-di-GMP G-quadruplex; test: Induction of c-di-GMP G-quadruplex formation in Pseudomonas aeruginosa PAO1 harboring wspF gene mutation assessed as reduction in pelB expression at 1.25 uM by RT-PCR method
[30] = tested on: c-di-GMP G-quadruplex; test: Induction of c-di-GMP G-quadruplex formation in Pseudomonas aeruginosa PAO1 harboring wspF gene mutation assessed as reduction in pslE expression at 1.25 uM by RT-PCR method
[31] = tested on: c-di-GMP G-quadruplex; test: Induction of c-di-GMP G-quadruplex formation in Pseudomonas aeruginosa PAO1 harboring wspF gene mutation assessed as reduction in cdrA expression at 1.25 uM by RT-PCR method
[32] = tested on: c-di-GMP G-quadruplex; test: Induction of c-di-GMP G-quadruplex formation in Pseudomonas aeruginosa PAO1 harboring wspF gene mutation assessed as induction of fleN expression at 1.25 uM by RT-PCR method
[33] = tested on: c-di-GMP G-quadruplex; test: Induction of c-di-GMP G-quadruplex formation in Pseudomonas aeruginosa PAO1 harboring wspF gene mutation assessed as induction of flhA expression at 1.25 uM by RT-PCR method
[34] = tested on: DNA; test: Toxicity assessed as induction of Escherichia coli pBR322 DNA intercalation activity at 10 uM incubated for 10 mins by polyacrylamide gel electrophoresis method
[35] = Cytotoxicity against human AC16 cells assessed as cell survival at 1.25 uM incubated for 24 hrs by MTT assay relative to control; assay type: cell-based, AC16 [Human hybrid]; details: read-out: Survival
[36] = Cytotoxicity against human AC16 cells assessed as cell survival at 0.15625 to 10 uM incubated for 24 hrs by MTT assay relative to control; assay type: cell-based, AC16 [Human hybrid]; details: dose 0.15625-10 µM, read-out: Survival

COc1cc(/C=C/c2sc3ccccc3[n+]2C)ccc1O.[I-]
inhibition [1]: 62.2% | Activity [2]: inactive | Activity [3]: Active | Activity [4]: Active | Activity [5]: Active | Activity [6]: inactive | Activity [7]: Dose-Dependent Effect | pIC50 [8]: 6.06 | Activity [9]: Active | Activity [10]: Active | Activity [11]: Active | Activity [12]: Active | Activity [13]: 77% | Activity [14]: 34% | Activity [15]: 15% | Activity [16]: Active | Activity [17]: 30% | Activity [18]: Active | Activity [19]: inactive | Activity [20]: inactive | Activity [21]: Active | Activity [22]: Active | Activity [23]: Active | Activity [24]: Active | Activity [25]: Active | Activity [26]: Active | Activity [27]: Active | Activity [28]: Active | Activity [29]: Active | Activity [30]: Active | Activity [31]: Active | Activity [32]: Active | Activity [33]: Active | Activity [34]: Non-Toxic | viability at 24 h, 1.25 µM [35]: 96% | viability at 24 h, up to 10 µM [36]: > 90%
